Laboratory results reported in patent US20020032581A1, “Single-patient drug trials used with accumulated database: risk of habituation” (priority 2000, published 2002).
Where a name gives a salt, the structure may show the parent alone.

Tests used:
[1] = test system: patient with perennial allergic rhinitis; conditions: for incidence of sedation: day 4 of treatment
[2] = test system: patients with allergic rhinitis; assay: database follow-up of similar patients placed on CM; type: in vivo, human; conditions: year long follow-up
Procedure: It is determined that they are a candidate for the individual patient formulary management control system. They are considered a candidate because there are similar patients, e.g. 50, in the database, and 40 of them are placed on CM rather than CL based upon the outcome of single-patient drug trials. […] If CL is found to be more acceptable considering the safety, effectiveness and desirability data of the individual patient questionnaire, the co-pay is the same low rate as for CM.

individual patient = assay: SPAS single-patient abuse potential test (liking score); conditions: for difference of liking score vs placebo: drug minus placebo; for liking score: on drug, codeine: person, diazepam: person, nicotine: person, on average
Procedure: Single-patient drug kits can be designed to test for “liking scores,” “abuse potential scores,” and patient's desire to re-use the test article compared to placebo and positive controls.
In this example, the abuse potential of the narcotic analgesic codeine is tested. A single-patient trial is conducted in a patient for whom treatment with codeine is deemed appropriate. The patient receives a SPAS test kit containing codeine, an alternative drug, e.g., ibuprofen and a questionnaire designed to elicit the liking score, desirability to re-use test article and abuse potential of the patient to codeine.
In another example, in follow-up to the test above, the clinician compares diazepam to secobarbital in the same patient.

[3] = test system: previously tested patients; assay: follow-up of previously tested similar patients for addiction / smoking; conditions: for level of addiction on follow-up of similar patients: human, in vivo
hyperactive child = assay: single-patient drug trial of methylphenidate vs placebo (SPAS kit, parent/school questionnaires); type: in vivo, human
Procedure: The usefulness of methylphenidate (Ritalin) treatment in a hyperactive child (Minimum Brain Dysfunction or Attention Deficit Disorder) is evaluated.
Consists of instructions, “calendar” packaging for drug and a substantially identical looking placebo to assure appropriate dosing and monitoring of compliance, questionnaires and assessment forms and instructions. Completed forms are sent to a neutral observer who has previously assigned the randomized, multiple-crossover schedule of drug and placebo periods. Only the observer has access to when active drug and placebo are taken and only the observer analyzes the data (exception: open-label or single-blind trials). Results are mailed to the physician and, in this case, parent for use in evaluating the usefulness of the therapy. The physician and parent are contacted, e.g., every three months to provide data on therapies utilized, and perceived outcome, until the condition is resolved. The data is also added to a post-marketing surveillance database for use in evaluating future individual study results, and for access by drug companies, regulatory agencies, and health care organizations.
The questionnaire portion of the kit includes an initial consent form for the parent or guardian to complete. The questionnaire also provides background information on the study and possible side effects associated with the medication. Also included therein is a form for providing relevant patient and family histories. More importantly, the questionnaire, in this case includes a portion for the weekly input by parents/guardians and school observers for answers to questions relating to the drug evaluation. Physician questionnaires are similarly arranged.
The kit described in Example 1 is used to again evaluate the usefulness of methylphenidate (Ritalin) treatment in a hyperactive child except that all interested parties have the benefit of a set of data generated from a pool of patients having a similar need for treatment. […]

[4] = test system: patients with the same disorder (hyperactive child); assay: pooled SPAS database and follow-up of patients continued on methylphenidate 40 mg daily; type: in vivo, human
Procedure: All results obtained from the data are compared against the results provided by data amassed from a pool of about 200 patients with the same disorder. If, of these 200 patients, 55 experience encouraging results (along with the current patient) they are continued on 40 mg daily treatment. If, of these 55 patients, 5 are lost to follow-up, with 50 remaining for prospective evaluation, the physician continues the patient on 40 mg methylphenidate daily based solely on the isolated SPAS single-patient drug trial results. The physician then reviews the pooled data on the 50 patients. This will be done to understand under what circumstances this individual patient is likely to continue to show benefit from methylphenidate 40 mg treatment, and what conditions lead to treatment failure.
If for example, the pool of 50 patients who continue treatment have the following scores following the original SPAS testing:
All 50 patients are followed up by telephone interview monthly for nine months or more, and outcomes are prospectively documented.

hypertensive person = assay: double-blind single-patient trial of sustained release verapamil vs sustained release propranolol; type: in vivo, human; conditions: for mean systolic blood pressure increases: verapamil 240 mg once daily vs propranolol 180 mg once daily; for mean systolic blood pressure increases / mean diastolic pressure: little difference between drugs; for mean diastolic pressure: throughout the six week trial
Procedure: In this example, the validity of using a sustained release formulation of verapamil 240 mg once daily as a therapeutic alternative to sustained release propranolol 180 mg once daily in a hypertensive person is shown. The trial during which the two medications are randomly administered in a double-blind manner is six weeks. The questionnaire used is set up in a manner similar to that described in above examples except that the questions elicit information related to the disease of hypertension. Blood pressure and adverse event reports are taken daily by the patient. […] Sleepiness is reported at equal rates for both drugs. All values are statistically insignificant and the therapeutic alternative selection is objectively validated.

[5] = pool of 50 patients who continue treatment

## CCOC(=O)N1CCC(=C2c3ccc(Cl)cc3CCc3cccnc32)CC1 [CL, loratidine]
[1]
  incidence of sedation: 2 on a 3 point scale

## CN(C)CCC(c1ccc(Cl)cc1)c1ccccn1 (stereo not shown) [CM, chlorpheniramine maleate]
[2]
  patients well maintained: 37 of the 40
[1]; 6 and 12 months post-initiation of CM treatment
  patient's symptoms on reevaluation: well maintained
[1]
  incidence of sedation: 2 on a 3 point scale
[1]; person, dust mite protein allergy
  most bothersome symptom, sneezing: similarly and effectively controlled

## COc1ccc2c3c1O[C@H]1[C@@H](O)C=C[C@H]4[C@@H](C2)N(C)CC[C@@]341 [codeine]
Individual patient
  difference of liking score vs placebo: 2 units
  liking score: 3 out of 5
[3]; Caucasian female patients 30 to 40 years with 0 unit difference
  became addicted: 10 out of 1250
[3]; black male patients 40 to 50 years old with 2-unit difference, treated with codeine
  became addicted: 25 out of 600
[3]; similar patients with 3 unit differences
  became addicted: 50 out of 110

## CN1C(=O)CN=C(c2ccccc2)c2cc(Cl)ccc21 [diazepam]
Individual patient
  difference of liking score vs placebo: 0 units
  liking score: 4 out of 5
[3]
  level of addiction on follow-up of similar patients: comparatively low level of addiction

## COC(=O)C(c1ccccc1)C1CCCCN1 (stereo not shown) [methylphenidate]
Hyperactive child; 40 mg daily as 10 mg four times daily, periods when methylphenidate is given vs placebo
  patient's attention span: improved substantially
Hyperactive child; during methylphenidate dosing periods
  teacher comments: corroborate improved attention span
Hyperactive child; during methylphenidate periods, 40 mg daily
  sleep patterns: statistically altered
[4]; patients with statistically altered sleep patterns on SPAS testing, within two months
  show severe episodes of bizarre behaviors: 90%
[4]; patients with statistically altered sleep patterns, within two months
  patients experience grand mal seizures: two
[4]; [5]
  Sleep Patterns: have been statistically altered: 50%
  Sleep Patterns: have not been statistically altered: 50%
  Teacher Comments: corroborate improved attention span: 80%
  Teacher Comments: do not corroborate improved attention span: 20%
[4]; pool of 50 patients who continue treatment, 40 mg daily
  Attention Span: have substantial improvement: 100%

## CN1CCCC1c1cccnc1 (stereo not shown) [nicotine]
Individual patient
  difference of liking score vs placebo: 3 units
  liking score: 4 out of 5
[3]; female Caucasian patients 15 to 17 years old with similar 3-unit difference
  are smokers: 820 out of 975

## CC(C)NCC(O)COc1cccc2ccccc12 (stereo not shown) [propranolol]
Hypertensive person; human, in vivo
  sleepiness reported: equal rates
Hypertensive person; six week trial
  mean systolic blood pressure increases: 3%
Hypertensive person
  mean diastolic pressure: essentially stable

## C=CCC1(C(C)CCC)C(=O)NC(=O)NC1=O (stereo not shown) [secobarbital]
Individual patient; same patient
  difference in liking scores, diazepam compared to secobarbital: greater addiction potential
[3]
  level of addiction on follow-up of similar patients: high level of addiction

## COc1ccc(CCN(C)CCCC(C#N)(c2ccc(OC)c(OC)c2)C(C)C)cc1OC (stereo not shown) [verapamil]
Hypertensive person; six week trial, both drugs
  sleepiness reported: equal rates
Hypertensive person; six week trial
  mean systolic blood pressure increases: 3%
Hypertensive person
  mean diastolic pressure: essentially stable
